Measured values published in US9139551B2, “Preparation of a new class of water-soluble ammonium 2,3-dihydroxy-5-((2R,3R)-3,5,7-trihydroxy-4-oxochroman-2-yl) phenolates and their biological activity of alcohol elimination” (priority 2014, dated 2015).
Marks after values point to notes of the source that are not given here.

How the values were obtained:
Balb/C mice [1] = assay: Dose-effect relationship of TDHM (sleep time and climbing time); assay type: in vivo
Procedure: Assay the Dose-Effect Relationship of TDHM • Groups design and treatment before experiment are the same as that in Deintoxication test. 30 minutes before intragastric administration of alcohol, mice were gavaged with 0.5 mg/kg BW, 2.0 mg/kg BW, 8.0 mg/kg BW, 32 mg/kg BW, 64 mg/kg BW, 128 mg/kg BW TDHM respectively. Sleep time and climbing time were recorded.

Balb/C mice [2] = assay: Anti-alcoholism test (agent 30 min after alcohol); assay type: in vivo
Text: Anti-Alcoholism Tests • Groups design and treatment before experiment are as the same as that in Deintoxication test. […]

Balb/C mice [3] = assay: Deintoxication test (agent 30 min before alcohol)
mice [4] = assay: Acute toxicity, intraperitoneal administration (mortality, LD50, body weight, dietary); assay type: in vivo; conditions: for Dead number: 20 mice; for Dead number / mortality: 7 days
Procedure: Acute Toxicity • Compounds PDHM/TDHM.
140 mice were divided into 7 groups (n=20), each group include 10 males and 10 females, they were treated with different concentrations of dosages and observed for 7 days. Specific experimental groups and experimental results were noted below. Note: Section 1-6 group compound are PDHM groups, and group 7 is a negative control group.
140 mice were divided into 7 groups (n=20), each group include 10 males and 10 females, they were treated with different concentrations of dosage and observed for 7 days. Note: Section 1-6 group compound are PDHM groups, and group 7 is a negative control group.

mice [5] = assay: Acute toxicity, intragastric administration (maximum tolerated dose)
Balb/C mice [6] = assay: Climbing net test; assay type: in vivo; conditions: 2 mg/kg gavage 30 min before alcohol
Procedure: Climbing Net Test • Groups design and treatment before experiment are as the same as that in deintoxication test. […] 30 minutes later all mice administrated alcohol (liquid Erguotou, ethonol concentration was diluted to 30%) 0.2 mL/kg BW and placed on a vertical metal net and measured the time when mice climbed on net.

Balb/C mice [7] = assay: Plasma EtOH concentration assay; assay type: in vivo; conditions: intragastric 2 mg/kg
Procedure: Plasma EtOH Concentration Assay. • Blood samples from the tail vein of mice at different time points (0, 15, 30, 45, 60, 90, 120, 240, 480 and 720 minutes) after EtOH (30% ethanol, 0.2 ml/kg bw) or TDHM (2 mg/kg bw), PDHM (2 mg/kg bw) or DHM (2 mg/kg bw) gavage were collected for plasma EtOH concentrations (plasma [EtOH]) assays. (“BW” or “bw”: body weight) • Briefly, the Balb/C mice were put into a restraint tube and the tail was warmed at 37° C. The tail vein at the tip of the tail was punched with a sharp blade. Approximately 0.2 ml venous blood was dropped to a capillary blood collection tube containing lithium heparin (Ram Scientific). Blood samples were centrifuged at 2500 rpm for 20 min. The supernatant was collected and stored at −80° C. until assay. The EtOH content of each blood sample was measured in duplicate along with EtOH standards using the alcohol oxidase reaction procedures (EnzyChrom™ Ethanol Acid Assay Kit, ECET-100) (Liang et al., 2007). The sample preparations were the same as described above.

[8] = 8.0 mg/kg BW intragastric, drunk mice
[9] = TDHM 0.5 mg/kg gavage 30 min before alcohol
[10] = TDHM 2 mg/kg gavage 30 min before alcohol
[11] = TDHM 8 mg/kg gavage 30 min before alcohol
[12] = TDHM 32 mg/kg gavage 30 min before alcohol
[13] = TDHM 64 mg/kg gavage 30 min before alcohol
[14] = TDHM 128 mg/kg gavage 30 min before alcohol
[15] = 2 mg/kg gavage 30 min after 30% ethanol
[16] = 2 mg/kg gavage 30 min after 30% ethanol, 20 mice
[17] = 2 mg/kg gavage 30 min before 30% ethanol
[18] = 2 mg/kg gavage 30 min before 30% ethanol, 20 mice
[19] = agents intragastric 30 minutes before drinking

triethylammonium 2,3-dihydroxy-5-((2R,3R)-3,5,7-trihydroxy-4-oxochroman-2-yl)phenolate [TDHM]
climbing time vs other concentrations of TDHM (Balb/C mice [1]; [8]): longer | sleep time vs other concentrations of TDHM (Balb/C mice [1]; [8]): significantly shorter | Climbing time (Balb/C mice [1]; [9]): 184.5 min | Holding time (Balb/C mice [1]; [9]): 147.2 min | Climbing time (Balb/C mice [1]; [10]): 272.67 min | Holding time (Balb/C mice [1]; [10]): 151.00 min | Climbing time (Balb/C mice [1]; [11]): 368.33 min | Holding time (Balb/C mice [1]; [11]): 104.5 min | Climbing time (Balb/C mice [1]; [12]): 243.17 min | Holding time (Balb/C mice [1]; [12]): 106.67 min | Climbing time (Balb/C mice [1]; [13]): 271.83 min | Holding time (Balb/C mice [1]; [13]): 84.33 min | Climbing time (Balb/C mice [1]; [14]): 298.33 min | Holding time (Balb/C mice [1]; [14]): 93.5 min | Sleep time M ± SD (Balb/C mice [2]; [15]): 99.29 ± 19.23*^& min | Tolerance time M ± SD (Balb/C mice [2]; [15]): 26.28 ± 17.49 min | Dead number (Balb/C mice [2]; [16]): 0 piece | Rate of drunk (Balb/C mice [2]; [16]): 0% | sleep time in drunk mice comparing with DHM (Balb/C mice [2]; 2 mg/kg gavage 30 min after alcohol): remarkably shorten | Sleep time M ± SD (Balb/C mice [3]; [17]): 69.29 ± 48.40 min | Tolerance time M ± SD (Balb/C mice [3]; [17]): 43.29 ± 23.44 min | Dead number (Balb/C mice [3]; [18]): 0 piece | Rate of drunk (Balb/C mice [3]; [18]): 0% | holding time comparing with DHM (Balb/C mice [3]; [19]): shorten | tolerance time of righting reflex disappearing comparing with DHM (Balb/C mice [3]; [19]): obviously prolonged | Dead number (mice [4]; TDHM 636 mg/kg i.p.): 0 | mortality (mice [4]; TDHM 636 mg/kg i.p.): 0% | average dietary of mice (mice [4]; TDHM 636 mg/kg i.p., D1): 3.62 g | average dietary of mice (mice [4]; TDHM 636 mg/kg i.p., D2): 4.67 g | average dietary of mice (mice [4]; TDHM 636 mg/kg i.p., D3): 5.33 g | average dietary of mice (mice [4]; TDHM 636 mg/kg i.p., D4): 6.4 g | average dietary of mice (mice [4]; TDHM 636 mg/kg i.p., D5): 5.53 g | average dietary of mice (mice [4]; TDHM 636 mg/kg i.p., D6): 5.18 g | average dietary of mice (mice [4]; TDHM 636 mg/kg i.p., D7): 5.44 g | Dead number (mice [4]; TDHM 674.16 mg/kg i.p.): 4 | mortality (mice [4]; TDHM 674.16 mg/kg i.p.): 20% | average dietary of mice (mice [4]; TDHM 674.16 mg/kg i.p., D1): 3.96 g | average dietary of mice (mice [4]; TDHM 674.16 mg/kg i.p., D2): 4.8 g | average dietary of mice (mice [4]; TDHM 674.16 mg/kg i.p., D3): 6.7 g | average dietary of mice (mice [4]; TDHM 674.16 mg/kg i.p., D4): 6.98 g | average dietary of mice (mice [4]; TDHM 674.16 mg/kg i.p., D5): 5.58 g | average dietary of mice (mice [4]; TDHM 674.16 mg/kg i.p., D6): 5.58 g | average dietary of mice (mice [4]; TDHM 674.16 mg/kg i.p., D7): 5.73 g | Dead number (mice [4]; TDHM 714.61 mg/kg i.p.): 4 | mortality (mice [4]; TDHM 714.61 mg/kg i.p.): 20% | average dietary of mice (mice [4]; TDHM 714.61 mg/kg i.p., D1): 3.62 g | average dietary of mice (mice [4]; TDHM 714.61 mg/kg i.p., D2): 5.42 g | average dietary of mice (mice [4]; TDHM 714.61 mg/kg i.p., D3): 6.55 g | average dietary of mice (mice [4]; TDHM 714.61 mg/kg i.p., D4): 7.06 g | average dietary of mice (mice [4]; TDHM 714.61 mg/kg i.p., D5): 5.49 g | average dietary of mice (mice [4]; TDHM 714.61 mg/kg i.p., D6): 5.17 g | average dietary of mice (mice [4]; TDHM 714.61 mg/kg i.p., D7): 5.2 g | Dead number (mice [4]; TDHM 757.49 mg/kg i.p.): 8 | mortality (mice [4]; TDHM 757.49 mg/kg i.p.): 40% | average dietary of mice (mice [4]; TDHM 757.49 mg/kg i.p., D1): 3.95 g | average dietary of mice (mice [4]; TDHM 757.49 mg/kg i.p., D2): 5.3 g | average dietary of mice (mice [4]; TDHM 757.49 mg/kg i.p., D3): 7.08 g | average dietary of mice (mice [4]; TDHM 757.49 mg/kg i.p., D4): 8.18 g | average dietary of mice (mice [4]; TDHM 757.49 mg/kg i.p., D5): 5.78 g | average dietary of mice (mice [4]; TDHM 757.49 mg/kg i.p., D6): 5.83 g | average dietary of mice (mice [4]; TDHM 757.49 mg/kg i.p., D7): 6.25 g | Dead number (mice [4]; TDHM 802.94 mg/kg i.p.): 18 | mortality (mice [4]; TDHM 802.94 mg/kg i.p.): 90% | average dietary of mice (mice [4]; TDHM 802.94 mg/kg i.p., D1): 4.6 g | average dietary of mice (mice [4]; TDHM 802.94 mg/kg i.p., D2): 7.66 g | average dietary of mice (mice [4]; TDHM 802.94 mg/kg i.p., D3): 7.08 g | average dietary of mice (mice [4]; TDHM 802.94 mg/kg i.p., D4): 9.04 g | average dietary of mice (mice [4]; TDHM 802.94 mg/kg i.p., D5): 6.89 g | average dietary of mice (mice [4]; TDHM 802.94 mg/kg i.p., D6): 6.23 g | average dietary of mice (mice [4]; TDHM 802.94 mg/kg i.p., D7): 6.27 g | Dead number (mice [4]; TDHM 851.11 mg/kg i.p.): 20 | mortality (mice [4]; TDHM 851.11 mg/kg i.p.): 100% | average dietary of mice (mice [4]; TDHM 851.11 mg/kg i.p., D1): 0 g | average dietary of mice (mice [4]; TDHM 851.11 mg/kg i.p., D2): 0 g | average dietary of mice (mice [4]; TDHM 851.11 mg/kg i.p., D3): 0 g | average dietary of mice (mice [4]; TDHM 851.11 mg/kg i.p., D4): 0 g | average dietary of mice (mice [4]; TDHM 851.11 mg/kg i.p., D5): 0 g | average dietary of mice (mice [4]; TDHM 851.11 mg/kg i.p., D6): 0 g | average dietary of mice (mice [4]; TDHM 851.11 mg/kg i.p., D7): 0 g | effect on dietary and body weight (mice [4]; mice): no significant effect | LD50 (mice [4]; mice, i.p., observed 7 days): 748.69 mg/kg | pathological examination of stomach, liver, kidney (mice [5]; mice at MTD, end of 7-day observation): no obvious degeneration, necrosis and other changes | pathology changes in livers, kidneys, hearts and lungs (mice [5]; mice of the toxicity experiments): No degeneration and necrosis pathology changes | deaths during the observation period at MTD (mice [5]; mice, gavage three times a day, 7 days): No deaths | climbing time vs normal control mice (Balb/C mice [6]): significantly prolonged | climbing (Balb/C mice [6]; vertical metal net): 471.5 ± 155.89 min | blood alcohol concentration vs control group treated with saline (Balb/C mice [7]): significantly decreased | reduction of blood alcohol concentration compared with DHM (Balb/C mice [7]): better beneficial effect than DHM
